Measured values published in patent EP0071374A1, “Nitrosourea derivatives having anti-tumour and anti-bacterial activity” (KUREHA KAGAKU KOGYO KABUSHIKI KAISHA, priority 1981, dated 1983).

Key:
L-1210 leukemia = experiment: Anti-tumour effect against L-1210 leukemia on mouse; format: in vivo; details: T/C x 100 of average survival days; dose 10 mg/kg intraperitoneally once a day for 5 days, starting 24 hours after transplantation of 1 x 10^5 cells/animal
Method: Anti-tumour effect against L-1210 leukemia on mouse: • The successively cultured L-1210 leukemia cells in the ascites of a mouse were transplanted intraperitoneally to a group of the mouse at a rate of 1 x 10^5 cells/animal, and after 24 hours of the transplantation, a solution of each of the present compounds dissolved in an aqueous physiological saline solution was intraperitoneally administered to the group of the mouse once a day for 5 days running. By observing the state of the mice, the average survival days of the administered mice (T) and those of the control group (C) were obtained to calculate the prolongation ratio of the mouse's life (T/C x 100).

[1] = Side effects: nephrotoxicity (albuminurea); format: in vivo, JCL-ICR mouse; details: orally 10 mg/kg once a day for 5 days; for Nephrotoxicity: albuminurea
Method: Side effects: • The side effects of the present compounds were examined using JCL-ICR mouse as the experimental animal.
Each of the present compounds was orally administered to a group of the mouse at a daily dose rate of 10 mg/kg once a day for 5 days running, the same procedure being carried out on the other group of the mouse by administering BCNU at the same rate.

V-7 tumour = experiment: Anti-tumour effect against V-7 tumour on a rabbit; format: in vivo; details: survival days vs not-administered control rabbits; dose 10 mg/kg on the 7th day and 11th day of the transplantation
Method: Anti-tumour effect against V-7 tumour on a rabbit: • The cancer cells prepared by extirpating the solid tumour transplated and proliferated in the femoral part of a rabbit, cutting finely and having passed through stainless steel mesh of Tyler standard mesh of ? 200 were transplanted to the thinner muscle of the femoral part of a rabbit by using an injector at a rate of 1.5 x 10^7 cells/animal. On the 7th day and llth day of the transplantation, the present compound was administered to the transplanted rabbit. The prolongation ratio of the rabbit was calculated by the comparison of the survival days of the administered rabbits and the not-administered control rabbits.

Solubility in water = format: physicochemical
Escherichia coli = experiment: Antibacterial activity in vitro, agar plate dilution; format: cell-based; parameters: key: + means the degree of inhibition of the growth of E. Coli; the larger the number of +, the larger the inhibition; ++: + means the degree of inhibition of the growth of E. Coli; the larger the number of +, the larger the inhibition; +++: + means the degree of inhibition of the growth of E. Coli; the larger the number of +, the larger the inhibition; - means that no inhibition of the growth of E. coli was observed; details: 18 hours at 37°C, Heart infusion agar
Method: Antibacterial activity: • i) A series of 2 times dilution of aqueous solution of each of the present compounds were prepared, and a plate culture medium was prepared by mixing each series with Heart infusion agar culture medium. A strain of Escherichia coli cultured in trypto-soy bouillon at 37°C for 18 hours was inoculated on the thus prepared culture medium, and after culturing for 18 hours at 37°C, the degree of proliferation of the inoculated bacteria was observed, the inoculum being a plutinum loop-full.

Row | SMILES | Prolongation ratio (L-1210 leukemia) [%] | Nephrotoxicity [1] | Prolongation ratio (V-7 tumour) [%] | Solubility in Water (Solubility in water) | degree of inhibition of the growth of E. coli (Escherichia coli; Diluted concentration 1/2) | degree of inhibition of the growth of E. coli (Escherichia coli; Diluted concentration 1/4) | degree of inhibition of the growth of E. coli (Escherichia coli; Diluted concentration 1/8) | degree of inhibition of the growth of E. coli (Escherichia coli; Diluted concentration 1) | degree of albuminurea ([1]; result in words)
1 | CCC(CO)(CO)NC(=O)N(CCCl)N=O [2-Ethyl-2-[3-(2-chloroethyl)-3-nitrosoureido]-1,3-propanediol] | 405 | + (+ means that albuminurea was observed in one to two animals of the total ten animals.) | 230 | good | ++ | + | + | +++ | 
2 | CC(CO)(CO)NC(=O)N(CCCl)N=O [2-Methyl-2-[3-(2-chloroethyl)-3-nitrosoureido]-1,3-propanediol] | 410 | + (+ means that albuminurea was observed in one to two animals of the total ten animals.) | 205 | good | ++ | ++ | + | +++ | 
3 | CC(NC(=O)N(CCCl)N=O)C(O)CO (centres unmarked) [3-[3-(2-Chloroethyl)-3-nitrosoureido]-1,2-butanediol] | 430 | + (+ means that albuminurea was observed in one to two animals of the total ten animals.) | 210 | good | ++ | + | + | +++ | 
4 | O=NN(CCCl)C(=O)NCC(O)CO (centres unmarked) [3-[3-(2-Chloroethyl)-3-nitrosoureido]-1,2-propanediol] | 420 | + (+ means that albuminurea was observed in one to two animals of the total ten animals.) | 215 | good | ++ | + | + | +++ | 
5 | O=NN(CCCl)C(=O)NCCCl [BCNU, 1,3-Bis(2-chloroethyl)-1-nitrosourea, reference compound] | 204 | +++ (+++ means that albuminurea was observed in eight to nine animals of the total ten animals.) | 140 | not soluble | + | - | - | + | severely
